Test results as given in the supplement of paper PMC9663587.

Assays:
Assay in all cases: increase in dead-cell fraction, 72 h; higher = more death;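 also: breast cancer cell lines in 384-well plates, stained with Hoechst plus LIVE/DEAD far red dye and imaged, cells above an LDR intensity threshold counted dead, Hoechst-negative corpses included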
[1] = compound: C=CC(=O)Nc1ccc(C(=O)Nc2[nH]nc3c2CN(C(=O)N[C@H](CN(C)C)c2ccccc2)C3(C)C)cc1 [YKL-5-124]
[2] = compound: CC(=O)c1c(C)c2cnc(Nc3ccc(N4CCN(CCOCCOCCOCCNC(=O)COc5cccc6c5C(=O)N(C5CCC(=O)NC5=O)C6=O)CC4)cn3)nc2n(C2CCCC2)c1=O [BSJ-03-123]
[3] = compound: CC(=O)c1c(C)c2cnc(Nc3ccc(N4CCNCC4)cn3)nc2n(C2CCCC2)c1=O
[4] = compound: CCN1CCN(Cc2ccc(Nc3ncc(F)c(-c4cc(F)c5nc(C)n(C(C)C)c5c4)n3)nc2)CC1
[5] = compound: CCOc1cc2ncc(C#N)c(Nc3ccc(OCc4ccccn4)c(Cl)c3)c2cc1NC(=O)/C=C/CN(C)C [Neratinib/HKI272]
[6] = compound: CCc1cnn2c(NCc3ccc[n+]([O-])c3)cc(N3CCCC[C@H]3CCO)nc12

In the case of HCC1954, the “increase in dead-cell fraction” value ([1]; 0.001 µM) is reported as 0.076, the “increase in dead-cell fraction” value ([1]; 0.003162 µM) is reported as 0.0781 and the “increase in dead-cell fraction” value ([1]; 0.01 µM) is reported as 0.11. For the same cell line, the “increase in dead-cell fraction” value ([1]; 0.03162 µM) was 0.0779, the “increase in dead-cell fraction” value ([1]; 0.1 µM) was 0.129 and the “increase in dead-cell fraction” value ([1]; 0.3162 µM) was 0.104. The “increase in dead-cell fraction” value ([1]; 1 µM) was 0.102, the “increase in dead-cell fraction” value ([1]; 3.162 µM) was 0.0854 and the “increase in dead-cell fraction” value ([1]; 10 µM) was 0.15. The “increase in dead-cell fraction” value ([2]; 0.001 µM) was 0.0014, the “increase in dead-cell fraction” value ([2]; 0.003162 µM) was 0.0109 and the “increase in dead-cell fraction” value ([2]; 0.01 µM) was 0.0001. For the same cell line, the “increase in dead-cell fraction” value ([2]; 0.03162 µM) was 0.004, the “increase in dead-cell fraction” value ([2]; 0.1 µM) was 0.0138 and the “increase in dead-cell fraction” value ([2]; 0.3162 µM) was 0.0101. For the same cell line, the “increase in dead-cell fraction” value ([2]; 1 µM) was 0.0096, the “increase in dead-cell fraction” value ([2]; 3.162 µM) was 0.0252 and the “increase in dead-cell fraction” value ([2]; 10 µM) was 0.141. The “increase in dead-cell fraction” value ([3]; 0.0003162 µM) was -0.0089, the “increase in dead-cell fraction” value ([3]; 0.001 µM) was -0.001 and the “increase in dead-cell fraction” value ([3]; 0.003162 µM) was -0.0131. For the same cell line, the “increase in dead-cell fraction” value ([3]; 0.01 µM) was -0.0027, the “increase in dead-cell fraction” value ([3]; 0.03162 µM) was -0.0121 and the “increase in dead-cell fraction” value ([3]; 0.1 µM) was -0.0026. For the same cell line, the “increase in dead-cell fraction” value ([3]; 0.3162 µM) was -0.0021, the “increase in dead-cell fraction” value ([3]; 1 µM) was -0.0019 and the “increase in dead-cell fraction” value ([3]; 3.162 µM) was 0.0043. The “increase in dead-cell fraction” value ([4]; 0.001 µM) was -0.0023, the “increase in dead-cell fraction” value ([4]; 0.003162 µM) was -0.0166 and the “increase in dead-cell fraction” value ([4]; 0.01 µM) was -0.0193. For the same cell line, the “increase in dead-cell fraction” value ([4]; 0.03162 µM) was -0.0017, the “increase in dead-cell fraction” value ([4]; 0.1 µM) was -0.0058 and the “increase in dead-cell fraction” value ([4]; 0.3162 µM) was -0.0054. The “increase in dead-cell fraction” value ([4]; 1 µM) was 0.0303, the “increase in dead-cell fraction” value ([4]; 3.162 µM) was 0.11 and the “increase in dead-cell fraction” value ([4]; 10 µM) was 0.683. The “increase in dead-cell fraction” value ([5]; 0.0003162 µM) was 0.0018, the “increase in dead-cell fraction” value ([5]; 0.001 µM) was 0.0012 and the “increase in dead-cell fraction” value ([5]; 0.003162 µM) was 0.0264. For the same cell line, the “increase in dead-cell fraction” value ([5]; 0.01 µM) was 0.0121, the “increase in dead-cell fraction” value ([5]; 0.03162 µM) was 0.0581 and the “increase in dead-cell fraction” value ([5]; 0.1 µM) was 0.111. The “increase in dead-cell fraction” value ([5]; 0.3162 µM) was 0.17, the “increase in dead-cell fraction” value ([5]; 1 µM) was 0.264 and the “increase in dead-cell fraction” value ([5]; 3.162 µM) was 0.42. The “increase in dead-cell fraction” value ([6]; 0.0001 µM) was -0.0062, the “increase in dead-cell fraction” value ([6]; 0.0003162 µM) was -0.012 and the “increase in dead-cell fraction” value ([6]; 0.001 µM) was -0.0086. The “increase in dead-cell fraction” value ([6]; 0.003162 µM) was -0.0038, the “increase in dead-cell fraction” value ([6]; 0.01 µM) was 0.0856 and the “increase in dead-cell fraction” value ([6]; 0.03162 µM) was 0.615. For the same cell line, the “increase in dead-cell fraction” value ([6]; 0.1 µM) was 0.704, the “increase in dead-cell fraction” value ([6]; 0.3162 µM) was 0.691 and the “increase in dead-cell fraction” value ([6]; 1 µM) was 0.7.
